The record followed here is BindingDB's records for doi:10.1021/jm00123a012 (Dainippon Pharmaceutical, 1989).

The term IC50 denotes the midpoint of a concentration-inhibition curve. Read a high IC50 as lower potency.

This experiment deals with Polyunsaturated fatty acid 5-lipoxygenase (Cavia porcellus). Description: Inhibitory activity against 5-lipoxygenase in guinea pig leukocyte.

As for `Cc1ccc(/C=C/C(=O)NCCCCN2CCN(C(c3ccccc3)c3ccccc3)CC2)cn1` [N-[4-(4-Benzhydryl-piperazin-1-yl)-butyl]-3-(6-methyl-pyridin-3-yl)-acrylamide], it took 4.86 µM to reach half-maximal inhibition (IC50).
